# Experimental data reported in patent US20070161592A1, “Method of treating fear” (priority 2005, published 2007).
# Experiments:
# [1] = system: pyramidal neurons in layer II/III of ACC slices; experiment: LTP induced by pairing training, whole-cell patch-clamp recordings in ACC slices; assay type: cell-based, mouse; conditions: for effect on LTP induced by pairing training: FIG. 3
# Description: Experiments were performed in a recording chamber on the stage of an Axioskop 2FS microscope with infrared DIC optics for visualizing whole-cell patch clamp recordings. EPSCs were recorded from layer II-III neurons using an Axon 200B amplifier (Axon Instruments, CA) and stimulations were delivered using a bipolar tungsten stimulating electrode placed in layer V of the ACC. In hippocampal slices, EPSCs were evoked by stimulating the Schaffer collateral-commissural pathway. EPSCs were induced by repetitive stimulations at 0.02 Hz and neurons were voltage clamped at −70 mV. […] The first protocol involved paired presynaptic 80 pulses at 2 Hz with postsynaptic depolarization at +30 mV (referred to as pairing training). The second involved paired 3 presynaptic stimuli that caused 3 EPSPs (10 ms ahead) with 3 postsynaptic APs at 30 Hz, paired 15 times every 5 s (named as EPSPs-APs protocol). The third involved theta-burst stimulation (5 trains of burst with 4 pulses at 100 Hz, at 200 ms interval; repeated 4 times at intervals of 10 s; named as TBS). The NMDAR-mediated component of EPSCs was pharmacologically isolated in Mg^2+-free ACSF containing: CNQX (20 μM), glycine (1 μM) and picrotoxin (100 μM). […] Neurons were voltage clamped at −60 mV and NMDARs-mediated EPSCs were evoked at 0.05 Hz. Picrotoxin (100 μM) was always present to block GABAA receptor-mediated inhibitory synaptic currents. The access resistance was 15-30 MΩ and was monitored throughout the experiment. […] Results are expressed as means±SEM. Statistical comparisons were performed using the Student t-test.
# Whole-cell patch-clamp recordings were conducted in visually identified pyramidal neurons in layer II/III of ACC slices. Pyramidal neurons were identified by injecting depolarized currents into neurons to induce action potentials. […] Pyramidal neurons were also identified based on the pyramid shape of their somata by putting Lucifer yellow into the intracellular solution (FIG. 1A).
# mice = experiment: Locomotor activity in the open field; assay type: in vivo, mouse; conditions: bilateral ACC microinjection, recorded 15 minutes or one day after injection
# Description: NR2B subunit inhibition in adult mice was examined to determine whether this impairs the formation of contextual fear memory. Three days after bilateral siRNA electroporation, mice were trained (or conditioned) and then tested for contextual fear memory by assessing freezing behavior in the same environmental context after 24 hours. There was no difference in baseline freezing or in freezing immediately following the shock/tone pairing between groups; however, there was a significant difference between groups when tested in the contextual environment one day later (n=8 for EGFP only; n=10 for control siRNA; n=8 for shock only; n=11 for NR2B siRNA; one-way ANOVA, p=0.005; FIG. 8C). […] Since the activation of NR2B was suppressed throughout the training and memory test, the roles of NR2B during the acquisition and retrieval of fear memory cannot be distinguished. Recently, electric stimulation of the ACC was reported to induce fear memory one and three days after stimulation (Tang et al., 2005), which implies that the ACC may be involved in the acquisition of fear memory. To directly address this issue, the effect of NR2B blockade using Ro25-6981 was examined. […] In order to rule out any locomotor side-effects, locomotor activity in the open field was tested after bilateral ACC microinjection of Ro25-6981 (n=4) or vehicle (n=4).
# NR1/NR2A = conditions: cited from earlier work
structure (smiles),measurement,setting,value
C[C@@H](CN1CCC(Cc2ccccc2)CC1)[C@@H](O)c1ccc(O)cc1 [Ro25-6981],"synaptic responses after pairing training (LTP), % of baseline",[1]; 0.3 μM,132.8±7.4%
same,effect on LTP induced by pairing training,[1]; 0.3 μM,partially depressed
same,"synaptic responses after pairing training (LTP), % of baseline",[1]; 3 μM,126.8±7.5%
same,effect on LTP induced by pairing training,[1]; 3 μM,partially depressed
same,locomotor activity in the open field,mice,no difference in locomotor activity
same,IC50,NR1/NR2A,52 µM
